The data set is described as follows: Comparative 5 minute biodistribution of A-E and 201TlCl in rats. Particulars: rat, i.v. 25 uCi/kg. Type of data set: in vivo, female Sprague-Dawley rats. As for the experimental part:
The following pharmacological studies were conducted on Complex (A), prepared by the method of Example 1; Complex (B), prepared by the method of Example 2; Complex (C) prepared by the method of Example 4; Complex (D) prepared by the method of Example 6; and Complex (E) prepared by the method of Example 7. Where indicated, Thallium-201 was used for comparative purposes.
The biodistribution of the experimental ^99m Tc(I) complexes in rats was compared with Thallium-201, currently the radionuclide of choice for myocardial perfusion imaging. Complex A was supplied as a vacuum-evaporated preparation and reconstituted with 0.9% Sodium Chloride, Injection, U.S.P. The ^99m Tc(I) complexes and ^201 TlCl solutions were diluted to concentrations of 12.5 uCi/ml with 0.9% Sodium Chloride, Injection, U.S.P. for dosing. Groups of 4-12 female Sprague-Dawley rats with body weights ranging from 180-231 g received single intraveneous injections of 25uCi/kg of Complex A, Complex B, Complex C, Complex D, Complex E, or ^201 TlCl.
Animals were sacrificed 5 minutes after dosing and radioactivity concentrations were determined by gamma scintillation spectroscopy in blood, heart, liver, lungs, kidney and skeletal muscle. As a measurement of selectivity of myocardial uptake, heart/blood, heart/liver and heart/lung tissue ratios were determined.

Molecules are shown by their SMILES.

1 compound from US4582700A, “Products and processes” (Mallinckrodt, Inc., priority 1983, dated 1986) can be followed below.

In the case of `[Cl][201Tl]` [^201 TlCl], the “Mean % Dose/g or ml, Blood” value (5 min, blood) is 0.26 % Dose/g or ml. In addition, the “Mean % Dose/g or ml, Heart” value (5 min, heart) is 6.35 % Dose/g or ml. In addition, the “Mean % Dose/g or ml, Kidney” value (5 min, kidney) is recorded as 6.53 % Dose/g or ml. Moreover, the “Mean % Dose/g or ml, Liver” value (5 min, liver) is 1.01 % Dose/g or ml. The “Mean % Dose/g or ml, Lung” value (5 min, lung) is on record as 4.69 % Dose/g or ml. In addition, the “Mean % Dose/g or ml, Muscle” value (5 min, skeletal muscle) is on record as 0.82 % Dose/g or ml. Where the note is “5 min after dosing”, the “Mean Tissue Ratio Heart/Blood” value was 24.31, the “Mean Tissue Ratio Heart/Liver” value came out at 6.31 and the “Mean Tissue Ratio Heart/Lung” value was found to be 1.35.
